According to US10745401B2, “Condensed lactam derivative” (Sumitomo Dainippon Pharma Co., Ltd., priority 2018, dated 2020):

Columns and labels:
human 5-HT2A receptor [1] = molecular target: T1, human 5-HT2A receptor (Homo sapiens (Human), UniProt P28223); test: Test 3: antagonist activity for human 5-HT2A receptor (aequorin luminescence, CHO-K1 cells); assay type: cell-based; details: for IC50: CHO-K1 cells, 1 nmol/L 5-HT
Protocol: Test 3: Evaluation of Antagonist Activity for Human 5-HT2A Receptor
Aequorin, Gα16 protein, and each receptor were transiently expressed in CHO-K1 cells (Chinese hamster ovary). […] Each compound dissolved in DMSO was added thereto, and changes in luminescence were measured by FDSS/μCELL functional drug screening system (Hamamatsu Photonics K.K.). Antagonist activity was calculated from the following formula. Antagonist activity (%)=100×{(Luminescence of well in the presence of 1 nmol/L 5-HT−Luminescence of well containing solvent)−(Luminescence of well in the presence of test compound and 1 nmol/L 5-HT−Luminescence of well containing solvent)}/(Luminescence of well in the presence of 1 nmol/L 5-HT−Luminescence of well containing solvent)

human 5-HT2A receptor [2] = molecular target: T1, human 5-HT2A receptor; test: Test 1: binding activity for human 5-HT2A receptor ([3H]Ketanserin, CHO cell membrane fraction)
Protocol: Test 1: Evaluation of Binding Activity for Human 5-HT1A Receptor, Human 5-HT2A Receptor, and Human D2 Receptor
Binding affinity of the present compound for human 5-HT1A receptor, human 5-HT2A receptor, and human D2 receptor was measured by the following procedures.
Each mixture was incubated at room temperature for 60 minutes. Then, the mixture was added quickly on a glassfiber filter plate (Multiscreen FB, Millipore, Inc.) coated with 0.3% aqueous polyethylenimine, and vacuum-filtered. Radioactivity remaining on the filter was measured with a liquid scintillation counter (PerkinElmer, Inc.). Binding inhibition rate was calculated from the following formula.
Ki of each compound was calculated from the following formula. Binding inhibition constant (Ki)=IC50/(1+S/Kd) wherein S is concentration of ligand; Kd is a binding dissociation constant of ligand to membrane, which is calculated from a saturated binding experiment conducted with the same cell membrane. A small Ki value means strong binding ability to a receptor.

human 5-HT1A receptor [3] = molecular target: T2, human 5-HT1A receptor (Homo sapiens (Human), UniProt P08908); test: Test 2: agonist activity for human 5-HT1A receptor ([35S]GTPγS binding); assay type: biochemical; details: for EC50: [35S]GTPγS binding, concentration at which half the activity of Emax was obtained; for Emax at 10 µM: agonist activity in the presence of 10 μM of compound, relative to 100 μmol/L 5-HT
Method in brief: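 [35S]GTPγS binding read-out: after 60 min at room temperature with test compound in GDP buffer, human 5-HT1A receptor CHO membranes were vacuum-filtered and retained radioactivity scintillation-counted. Agonist activity calculated by formula.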

human 5-HT1A receptor [4] = molecular target: T2, human 5-HT1A receptor; test: Test 1: binding activity for human 5-HT1A receptor ([3H]8-OH-DPAT, CHO cell membrane fraction)
Method in brief: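 Membranes incubated with [3H]8-OH-DPAT and compound for 60 min at room temperature, then filtered on polyethylenimine-coated glass-fibre plates and counted by liquid scintillation. IC50 from Hill analysis; Ki = IC50/(1+S/Kd), Kd from saturation binding on the same membranes.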

human D2 receptor = human D2 receptor (Homo sapiens (Human), UniProt P14416); test: Test 1: binding activity for human D2 receptor ([3H]Spiperone, CHO cell membrane fraction); details: for Ki: human D2 receptor, [3H]Spiperone; for D2 Ki/5-HT1A Ki / D2 Ki/5-HT2A Ki: selectivity ratio
Method in brief: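 Compound displacement of [3H]ketanserin at 5-HT2A or [3H]spiperone at D2 was measured in CHO membrane fractions after 60 min at room temperature, with filtration and scintillation counting. IC50 was converted to Ki by Cheng–Prusoff using ligand concentration and Kd from saturation binding.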

[5] = Test 4: metabolic stability test in human hepatic microsome; assay type: in vitro ADME; details: 0.1 mg/mL microsome, 0.1 μmol/L compound, 37° C., 30 minutes
Method in brief: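 LC-MS quantified remaining parent after 30 min, 37° C, in pH 7.4 25 mmol/L phosphate containing 0.1 mg/mL human hepatic microsomes, 3.2 mmol/L NADPH and 0.1 μmol/L test compound. Value given as −LN(residual ratio)/30/0.1, mL/min/mg protein.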

hERG channel = hERG channel (Homo sapiens (Human), UniProt Q12809); test: Test 6-1: inhibitory activity for hERG channel (auto patch clamp, Qpatch); assay type: cell-based; details: whole cell auto patch clamp, hERG-CHO cells; read-out: hERG inhibition IC50
Method in brief: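 Whole-cell patch clamp on an automated system using CHO cells stably expressing human hERG (IKr); 15 s pulse interval. Four increasing compound concentrations applied cumulatively; mean peak tail current from last 3 stimulations per concentration used. IC50 from inhibition versus pre-compound current, fitted by Hill equation.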

Chain of hERG channel (Q12809 whole entry): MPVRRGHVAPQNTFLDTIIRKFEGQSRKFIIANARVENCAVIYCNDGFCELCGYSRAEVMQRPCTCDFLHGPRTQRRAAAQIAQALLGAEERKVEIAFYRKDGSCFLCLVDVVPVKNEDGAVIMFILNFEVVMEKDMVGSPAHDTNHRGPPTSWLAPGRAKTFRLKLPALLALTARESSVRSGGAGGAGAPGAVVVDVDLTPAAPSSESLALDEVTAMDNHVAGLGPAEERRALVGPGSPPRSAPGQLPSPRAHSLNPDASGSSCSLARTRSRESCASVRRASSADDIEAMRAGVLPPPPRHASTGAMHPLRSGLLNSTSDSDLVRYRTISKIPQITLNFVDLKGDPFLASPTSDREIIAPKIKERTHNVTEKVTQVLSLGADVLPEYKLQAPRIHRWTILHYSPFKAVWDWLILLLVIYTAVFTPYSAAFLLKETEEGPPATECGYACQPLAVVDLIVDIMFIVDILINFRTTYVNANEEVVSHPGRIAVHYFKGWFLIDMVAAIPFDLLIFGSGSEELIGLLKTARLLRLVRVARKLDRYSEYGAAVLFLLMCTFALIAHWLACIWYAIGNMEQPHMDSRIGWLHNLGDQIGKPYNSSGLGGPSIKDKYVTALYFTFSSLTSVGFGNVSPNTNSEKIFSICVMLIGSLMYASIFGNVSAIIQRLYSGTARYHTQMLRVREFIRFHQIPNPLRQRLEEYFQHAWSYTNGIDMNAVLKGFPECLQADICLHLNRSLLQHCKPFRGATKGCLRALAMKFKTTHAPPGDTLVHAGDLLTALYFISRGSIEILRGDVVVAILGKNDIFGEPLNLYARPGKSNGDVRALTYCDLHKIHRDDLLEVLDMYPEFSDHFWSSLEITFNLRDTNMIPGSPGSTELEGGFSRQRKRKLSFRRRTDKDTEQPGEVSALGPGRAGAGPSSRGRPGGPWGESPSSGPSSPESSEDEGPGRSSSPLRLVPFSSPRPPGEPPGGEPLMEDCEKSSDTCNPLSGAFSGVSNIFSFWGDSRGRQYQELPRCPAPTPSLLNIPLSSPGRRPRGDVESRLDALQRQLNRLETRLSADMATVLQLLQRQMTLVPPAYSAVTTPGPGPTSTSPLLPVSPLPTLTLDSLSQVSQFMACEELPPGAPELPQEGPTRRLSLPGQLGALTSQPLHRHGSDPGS
T2 sequence (P08908 whole entry): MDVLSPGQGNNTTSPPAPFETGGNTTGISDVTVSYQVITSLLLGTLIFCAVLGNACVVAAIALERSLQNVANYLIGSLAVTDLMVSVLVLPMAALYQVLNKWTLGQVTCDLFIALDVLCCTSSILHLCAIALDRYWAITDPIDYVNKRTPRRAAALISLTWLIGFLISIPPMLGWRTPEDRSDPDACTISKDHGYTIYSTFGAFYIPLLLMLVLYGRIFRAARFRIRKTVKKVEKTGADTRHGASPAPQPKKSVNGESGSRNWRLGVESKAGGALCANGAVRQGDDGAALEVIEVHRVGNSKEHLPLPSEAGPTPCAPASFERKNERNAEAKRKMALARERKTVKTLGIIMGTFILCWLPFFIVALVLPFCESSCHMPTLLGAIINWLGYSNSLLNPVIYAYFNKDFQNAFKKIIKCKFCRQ
T1 sequence (P28223 whole entry): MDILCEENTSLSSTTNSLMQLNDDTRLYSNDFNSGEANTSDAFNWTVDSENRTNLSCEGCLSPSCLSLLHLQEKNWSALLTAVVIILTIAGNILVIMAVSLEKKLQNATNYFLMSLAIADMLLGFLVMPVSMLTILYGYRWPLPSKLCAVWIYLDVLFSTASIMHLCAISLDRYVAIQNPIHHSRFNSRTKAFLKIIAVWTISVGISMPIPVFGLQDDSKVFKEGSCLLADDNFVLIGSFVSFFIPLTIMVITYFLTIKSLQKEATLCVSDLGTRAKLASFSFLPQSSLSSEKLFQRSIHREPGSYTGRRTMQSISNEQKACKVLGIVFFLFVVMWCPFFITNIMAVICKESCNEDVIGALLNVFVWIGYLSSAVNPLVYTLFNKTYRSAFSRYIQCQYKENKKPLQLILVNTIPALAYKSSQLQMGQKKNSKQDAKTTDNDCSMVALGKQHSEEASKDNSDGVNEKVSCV
Chain of human D2 receptor (P14416 whole entry): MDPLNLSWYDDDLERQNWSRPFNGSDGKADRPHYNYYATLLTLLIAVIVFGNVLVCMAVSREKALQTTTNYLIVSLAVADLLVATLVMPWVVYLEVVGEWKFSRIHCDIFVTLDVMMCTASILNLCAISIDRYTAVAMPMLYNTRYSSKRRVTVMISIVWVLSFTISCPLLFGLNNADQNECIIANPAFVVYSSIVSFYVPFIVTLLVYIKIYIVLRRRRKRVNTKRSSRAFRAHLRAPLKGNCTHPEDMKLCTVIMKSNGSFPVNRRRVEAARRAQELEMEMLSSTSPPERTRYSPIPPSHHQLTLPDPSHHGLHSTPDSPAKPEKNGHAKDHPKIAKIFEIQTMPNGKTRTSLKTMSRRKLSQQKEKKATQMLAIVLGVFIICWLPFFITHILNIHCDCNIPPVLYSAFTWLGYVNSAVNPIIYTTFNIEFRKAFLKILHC

Compound | IC50 (human 5-HT2A receptor [1]; aequorin luminescence) [nM] | Ki (human 5-HT2A receptor [2]) [nM] | EC50 (human 5-HT1A receptor [3]) [nM] | Ki (human 5-HT1A receptor [4]) [nM] | Ki (human D2 receptor) [nM] | Emax at 10 µM (human 5-HT1A receptor [3]) [%] | D2 Ki/5-HT1A Ki (human D2 receptor) | D2 Ki/5-HT2A Ki (human D2 receptor) | activity at 10 µM (human 5-HT2A receptor [1]; CHO-K1) [%] | Metabolic stability in human hepatic microsome [5] [mL/min/mg protein] | IC50 (hERG channel) [nM] | IC50 (human 5-HT2A receptor [1]) [nM]
Cc1cccc2c(C3CCN(CCN4CCc5cccnc5C4=O)CC3)noc12 [Example 120] | 912 | 91 | 630 | 340 | > 10000 | – | – | – | – | – | – | –
Cc1ncc2c(=O)n(CCN3CCN(c4noc5ccccc45)CC3)ccc2n1 [Example 193, 6-{2-[4-(1,2-Benzoisoxazol-3-yl)piperazin-1-yl]ethyl}-2-methylpyrido[4,3-d]pyrimidin-5(6H)-one] | 143 | 122 | 756 | 387 | > 10000 | 27 | >25.8 | >81.7 | – | – | – | –
COc1ccc2onc(C3CCN(CCN4CCc5cccnc5C4=O)CC3)c2c1 [Example 142] | 3910 | 164 | 8.8 | 1.83 | > 10000 | 54 | >5452.0 | >61.0 | – | – | – | –
O=C1c2ncccc2CCN1CCN1CCC(c2noc3c(F)cccc23)CC1 [Example 140] | 373 | 118 | 2300 | 168 | > 10000 | 27 | >59.5 | >84.7 | – | – | – | –
O=C1c2ncccc2CCN1CCN1CCC(c2noc3cc(F)c(F)cc23)CC1 [Example 148] | – | 43.2 | – | 156 | – | – | – | – | 45 | – | – | –
O=c1c2cccnc2ccn1CCN1CCN(c2noc3ccccc23)CC1 [Example 115] | 4.28 | 1.07 | – | – | > 10000 | 37 | – | – | – | <0.05 | 5000 | –
O=C1c2ncccc2CCN1CCN1CCC(c2noc3cccc(F)c23)CC1 [Example 141] | 976 | 173 | 30 | 4.16 | > 10000 | 44 | >2405.7 | >57.8 | – | – | – | –
CC1CN(CCN2CCN(c3noc4ccccc34)CC2)C(=O)c2ccn(C)c21 (stereo not drawn) [Example 83] | – | 4 | – | – | – | 61 | – | – | – | 0.135 | 8000 | 49
Cc1nc2c(o1)C(=O)N(CCN1CCN(c3nsc4ccccc34)CC1)CCC2 [Example 46] | – | 2.8 | – | – | – | 58 | – | – | – | 0.018 | 3700 | 52
CC1CN(CCN2CCC(c3noc4ccccc34)CC2)C(=O)c2ccn(C)c21 (stereo not drawn) [Example 82] | – | 0.87 | – | – | – | 61 | – | – | – | 0.072 | 1900 | 46
O=c1c2cnc(C(F)(F)F)cc2ccn1CCN1CCN(c2noc3ccccc23)CC1 [Example 173] | 184 | 22.8 | 40.8 | 38.6 | > 10000 | 50 | >259.1 | >438.0 | – | – | – | –
Cn1ccc2c1CCCN(CCN1CCN(c3nsc4ccccc34)CC1)C2=O [Example 165] | 15.4 | 1.2 | – | – | – | 44 | – | – | – | 0.265 | 7900 | –
O=c1c2cccnc2ccn1CCN1CCN(c2nsc3ccccc23)CC1 [Example 10] | – | 0.49 | 119 | 20 | – | – | – | – | – | – | – | 0.71
O=C1c2ncccc2CCN1CCN1CCC(c2noc3ccccc23)CC1 [Example 22, 7-{2-[4-(1,2-Benzoisoxazol-3-yl)piperidin-1-yl]ethyl}-6,7-dihydro-1,7-naphthyridin-8(5H)-one] | – | 4.4 | – | – | 2600 | 52 | – | – | – | 0.039 | 1900 | 94
Cc1c2c(nn1C)CCN(CCN1CCN(c3noc4ccccc34)CC1)C2=O [Example 171] | 45.9 | 2.6 | – | – | – | 56 | – | – | – | <0.05 | 6600 | –
Cn1ncc2c1CCCC(CCN1CCC(c3noc4ccccc34)CC1)C2=O (stereo not drawn) [Example 30] | – | 0.76 | – | – | – | 42 | – | – | – | 0.065 | 900 | 43
O=C1c2ncccc2CCN1CCN1CCN(c2nsc3ccccc23)CC1 [Example 7] | – | 2.63 | – | – | – | 55 | – | – | – | 0.041 | 5200 | 7.83
O=C1c2cnc(C(F)(F)F)cc2CCN1CCN1CCN(c2nsc3ccccc23)CC1 [Example 110, 2-{2-[4-(1,2-Benzoisothiazol-3-yl)piperazin-1-yl]ethyl}-6-(trifluoromethyl)-3,4-dihydro-2,7-naphthyridin-1(2H)-one] | – | 2.6 | – | – | – | 65 | – | – | – | 0.353 | 2400 | 42.4
Cn1cc2c(n1)C(=O)N(CCN1CCN(c3nsc4ccccc34)CC1)CCC2 [Example 49] | – | 1.8 | – | – | – | 64 | – | – | – | 0.063 | 5900 | 7.02
O=C1c2ncccc2CCN1CCN1CCC(c2nsc3ccccc23)CC1 [Example 26] | – | 1.92 | – | – | – | 50 | – | – | – | <0.01 | 800 | 4.49
